Data as given in patent US20040077580A1, “Antisense modulation of PI3K P85 Expression” (priority 2000, published 2004).
Strand notation (5' to 3'): a small letter for the sugar, then the base; units joined by * are phosphorothioate-linked, units joined directly phosphodiester-linked; [ ] holds rarer units or linkages, { } end groups; capitals alone tell only the bases. e = 2'-O-(2-methoxyethyl) (MOE); [5mC] = 5-methylcytosine; d = 2'-deoxy (DNA)

How the values were obtained:
mouse PI3K p85 = experiment: Inhibition of mouse PI3K p85 mRNA levels by antisense oligonucleotides, real-time quantitative RT-PCR; format: cell-based; parameters: concentration or dose not given beside the values; conditions: chimeric phosphorothioate 2′-MOE gapmers, averaged from two experiments
Procedure: Cells were harvested 16 hours after oligonucleotide treatment.
Target sites are indicated by nucleotide numbers, as given in the sequence source reference (Genbank accession no. U50413; SEQ ID NO: 48), to which the oligonucleotide binds.
Cytidine residues are 5-methylcytidines throughout the oligonucleotides.
Data were obtained by real-time quantitative RT-PCR as described in other examples herein and are averaged from two experiments. […] If present, “N.D.” indicates “no data”.

PI3K p85 mRNA = PI3K p85 mRNA expression in liver and fat of treated mice; format: in vivo, mouse
Procedure: Ob/ob mice are used as a model of obesity. The ob/ob phenotype is due to a mutation in the leptin gene on a C57BL/6J-Lep(ob) background.
In accordance with the present invention, the effects of ISIS 131410 (SEQ ID NO: 56) on PI3K p85 mRNA expression was investigated in the ob/ob mouse model of obesity.
Mice were treated at a dose of 25 mg/kg of ISIS 141925 or 25 mg/kg of ISIS 131410.
Treatment was continued for two weeks after which the mice were sacrificed and tissues collected for mRNA analysis. RNA values were normalized and are expressed as a percentage of saline treated control.
Lean littermates (ob/wt) were also examined for mRNA reduction of PI3K p85 in the liver at doses of 25 and 50 mg/kg of ISIS 131410 or saline treatment. In these animals, at both doses, the level of expression was reduced only minimally to 80% of control.

[1] = for Blood glucose level at day 14: 25 or 50 mg/kg intraperitoneal once a week
[2] = Serum insulin levels in ob/ob mice; format: in vivo, mouse; conditions: male ob/ob mice; 50 mg/kg intraperitoneal once a week for two weeks
Excerpt: Treatment was continued for two weeks with serum insulin levels being measured on day 14.

PI3K p85 splice variants = experiment: Expression of PI3K p85 splice variants in liver, immunoprecipitation with p110 and Western blot with p85pan antibody; format: in vivo, mouse; conditions: livers of both ob/ob and wild-type mice
Excerpt: ISIS 131410 is one of several antisense oligonucleotides of the present invention that hybridize to the longer p85α splice variant and not to the p55α or the p50α splice variant. Studies were therefore designed to study the effects of this antisense oligonucleotide on expression product of PI3K p85α splice variant.

[3] = male ob/ob mice, 25 mg/kg intraperitoneal once a week for two weeks, percentage of saline treated control
[4] = ob/ob mice, starting level 250 mg/dL at day 1

Substance | % Inhib. of mouse PI3K p85 mRNA levels (mouse PI3K p85) | other results
131406 (antisense e[5mC]*eG*e[5mC]*eT*eG*d[5mC]*dT*dT*d[5mC]*d[5mC]*dT*d[5mC]*d[5mC]*dA*dA*e[5mC]*eT*e[5mC]*eG*eG) [compound 131406] | 56% | –
131414 (antisense eT*e[5mC]*eG*eG*e[5mC]*dG*dA*dG*dA*dT*dA*dG*d[5mC]*dG*dT*eT*eT*eG*eA*eA) [compound 131414] | 73% | –
131417 (antisense eG*eG*eT*eG*eT*dA*dA*dG*dA*dG*dT*dG*dT*dA*dA*eT*e[5mC]*eG*e[5mC]*e[5mC]) [compound 131417] | 78% | –
131409 (antisense eG*e[5mC]*eA*e[5mC]*eT*d[5mC]*dA*dT*dG*dT*d[5mC]*dT*dG*d[5mC]*dA*eG*e[5mC]*eT*e[5mC]*eT) [compound 131409] | 85% | –
GCCACCGCCTATGTCTTCTC (listed as DNA, chemistry not given here) [ISIS 141925, the control oligonucleotide; scrambled control, reference compound] | – | PI3K p85 mRNA level in fat (PI3K p85 mRNA; [3]): no reduction; PI3K p85 mRNA level in liver (PI3K p85 mRNA; [3]): no reduction; Blood glucose level at day 14 [1, 4]: 240 mg/dL; Serum insulin level at day 14 [2]: 28 ng/mL
gcatcaatgttctctcaaag (eG*e[5mC]*eA*eT*e[5mC]*dA*dA*dT*dG*dT*dT*d[5mC]*dT*d[5mC]*dT*e[5mC]*eA*eA*eA*eG; antisense) [ISIS 131426] | at least 60% | –
131422 (antisense e[5mC]*e[5mC]*eA*eT*eA*dG*d[5mC]*d[5mC]*dG*dG*dT*dG*dG*d[5mC]*dA*eG*eT*e[5mC]*eT*eT) [compound 131422] | 40% | –
atactgaagcgtaagccaac (eA*eT*eA*e[5mC]*eT*dG*dA*dA*dG*d[5mC]*dG*dT*dA*dA*dG*e[5mC]*e[5mC]*eA*eA*e[5mC]; antisense) [ISIS 131415] | at least 60% | –
cctggccatcactgaatcca (CCTGGCCATCACTGAATCCA; chemistry not given here) [ISIS 131410] | at least 60% | PI3K p85 mRNA level in liver (PI3K p85 mRNA; lean littermates (ob/wt), at both doses, 25 and 50 mg/kg): 80 % of control; PI3K p85 mRNA level in fat (PI3K p85 mRNA; [3]): 55 % of control; PI3K p85 mRNA level in liver (PI3K p85 mRNA; [3]): 52 % of control; Species of PI3K p85 splice variant present in liver (PI3K p85 splice variants): alters the species of PI3K p85 variant present in favor of the p50α variant; Hypoglycemia as a result of oligonucleotide treatment ([1]; mouse, in vivo): no hypoglycemia induced; Blood glucose level at day 14 [1, 4]: 150 mg/dL; Blood glucose level at day 7 ([1]; ob/ob mice, all doses (25 or 50 mg/kg) intraperitoneal once a week, starting level 250 mg/dL at day 1): 180 mg/dL; Blood glucose level, constant throughout the study (average) ([1]; wild-type mice, all treatment groups (25 or 50 mg/kg), two weeks): 150 mg/dL; Serum insulin level at day 14 [2]: 5 ng/mL
131421 (antisense eG*e[5mC]*eT*e[5mC]*e[5mC]*d[5mC]*dG*dA*d[5mC]*dA*dT*dT*d[5mC]*d[5mC]*dA*e[5mC]*eG*eT*e[5mC]*eT) [compound 131421] | 65% | –
131410 (antisense e[5mC]*e[5mC]*eT*eG*eG*d[5mC]*d[5mC]*dA*dT*d[5mC]*dA*d[5mC]*dT*dG*dA*eA*eT*e[5mC]*e[5mC]*eA) [compound 131410] | 95% | –
ccatctgtcctccatcaacg (e[5mC]*e[5mC]*eA*eT*e[5mC]*dT*dG*dT*d[5mC]*d[5mC]*dT*d[5mC]*d[5mC]*dA*dT*e[5mC]*eA*eA*e[5mC]*eG; antisense) [ISIS 131408] | at least 60% | –
131416 (antisense eT*eG*e[5mC]*eT*eG*dG*dT*dG*d[5mC]*dT*dG*dG*d[5mC]*dT*dG*eT*e[5mC]*eT*e[5mC]*eT) [compound 131416] | 68% | –
ccagtggtttcattgtagcc (e[5mC]*e[5mC]*eA*eG*eT*dG*dG*dT*dT*dT*d[5mC]*dA*dT*dT*dG*eT*eA*eG*e[5mC]*e[5mC]; antisense) [ISIS 131411] | at least 60% | –
131423 (antisense eT*eT*eT*eG*e[5mC]*dT*dT*d[5mC]*dT*d[5mC]*dA*dG*dA*dG*dG*e[5mC]*e[5mC]*eT*eT*eG) [compound 131423] | 40% | –
131418 (antisense e[5mC]*e[5mC]*eT*eG*e[5mC]*dT*dG*dG*dT*dA*dT*dT*dT*dG*dG*eA*e[5mC]*eA*e[5mC]*eT) [compound 131418] | 50% | –
tcggcgagatagcgtttgaa (eT*e[5mC]*eG*eG*e[5mC]*dG*dA*dG*dA*dT*dA*dG*d[5mC]*dG*dT*eT*eT*eG*eA*eA; antisense) [ISIS 131414] | at least 60% | –
